The numbers were not newly measured in patent US11873519B2, “Composition for preventing age-related metabolic and tissue degenerative changes” (priority 2017, dated 2024), which cites them from elsewhere.

The series deals with Ewing's sarcoma PDOX.

Regarding “L-methionine α-deamino-γ-mercaptomethane lyase [rMETase]”, the “Serum and tumor MET levels versus controls” value was “lower”; the “Tumor growth compared to untreated control mice” value is recorded as “effectively reduced tumor growth”.
